Results taken from patent publication US5157052A, “Method for inhibiting IgE production” (priority 1990, dated 1992).

What was measured:
[1] = tested on: IgE; experiment: ED50 for inhibition of IgE calculated from the examples; assay type: in vivo, mouse; settings: dose to achieve 50% inhibition of IgE
Protocol: From the data in the above examples, the effective dose of each prostaglandin to achieve 50% inhibition of IgE (ED50) was calculated.

[2] = tested on: IgE; experiment: Serum IgE response induced by FF1-4D5 + H∂A1 anti-IgD antibodies (ELISA, Assay A / Assay F); assay type: in vivo, mouse (Balb/c female)
Summary of the method: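 Transient IgE response induced in female Balb/c mice (10–20 weeks) by a day-0 i.v. or s.c. injection of 100 μg each of anti-IgD FF1-4D5 and H.δA1. Serum IgE measured by sandwich ELISA (B1E3 capture, biotinylated R1E4 detection, avidin-biotin-HRP/ABTS), quantified against an IgE standard curve corrected for serum dilution.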

[3] = Table 14, 20 μg days 3 and 4, day 8 (control 6071)
[4] = Table 12, 20 μg days 3 and 4, day 8 (control 11398)

SMILES: CCCCC(C)(O)C/C=C/[C@H]1[C@H](O)CC(=O)[C@@H]1C/C=C\C=CCC(=O)OC (relative stereo) [(±) methyl 11α,16-dihydroxy-16-methyl-9-oxoprosta-3,5Z,13-trien-1-oate]
- ED50 IgE Inhibition [1]: 6.5 μg/mouse/TID
- de novo IgE synthesis ([2]; 20 μg days 3 and 4, Example 25): inhibit de novo IgE synthesis
- IgE ± SD [2, 3]: 1176 ± 137 ng/mL

SMILES: CCCCC(C)(O)C/C=C/[C@H]1[C@H](O)CC(=O)[C@@H]1C/C=C\CCCC(=O)OC (mixture of isomers) [(±) methyl 11α,16-dihydroxy-16-methyl-9-oxoprosta-5Z,13E-dien-1-oate]
- ED50 IgE Inhibition [1]: 1.0 μg/mouse/TID
- Serum IgE ± SD ([2]; 0.5 μg IP 4x daily days 3 and 4, day 7): 7813 ± 588 ng/mL
- Serum IgE ± SD ([2]; 0.5 μg IP 4x daily days 3 and 4, day 8): 5699 ± 322 ng/mL
- Serum IgE ± SD ([2]; 0.5 μg IP 4x daily days 3 and 4, day 9): 6097 ± 249 ng/mL
- Serum IgE ± SD ([2]; 0.5 μg IP 4x daily days 3 and 4, day 11): 2049 ± 1201 ng/mL
- Serum IgE ± SD ([2]; 0.5 μg IP 4x daily days 3 and 4, day -1 baseline before treatment): 839 ± 44 ng/mL
- Serum IgE ± SD ([2]; 1.0 μg IP 3x daily days 3 and 4, day 7 (control 8850)): 4974 ± 1232 ng/mL
- Serum IgE ± SD ([2]; 1.0 μg IP 3x daily days 3 and 4, day 8 (control 7557)): 4595 ± 663 ng/mL
- Serum IgE ± SD ([2]; 1.0 μg IP 3x daily days 3 and 4, day 9 (control 6458)): 4602 ± 771 ng/mL
- Serum IgE ± SD ([2]; 1.0 μg IP 3x daily days 3 and 4, day 11 (control 1466)): 1326 ± 241 ng/mL
- Serum IgE ± SD ([2]; 1.0 μg IP 3x daily days 3 and 4, day -1 baseline before treatment): 808 ± 17 ng/mL
- Serum IgE ± SD ([2]; 1.0 μg IP 4x daily days 3 and 4, day 7): 5549 ± 1044 ng/mL
- Serum IgE ± SD ([2]; 1.0 μg IP 4x daily days 3 and 4, day 8): 3051 ± 475 ng/mL
- Serum IgE ± SD ([2]; 1.0 μg IP 4x daily days 3 and 4, day 9): 4383 ± 832 ng/mL
- Serum IgE ± SD ([2]; 1.0 μg IP 4x daily days 3 and 4, day 11): 1506 ± 794 ng/mL
- Serum IgE ± SD ([2]; 1.0 μg IP 4x daily days 3 and 4, day -1 baseline before treatment): 1197 ± 272 ng/mL
- Serum IgE ± SD ([2]; 2.0 μg IP 3x daily days 3 and 4, day 7): 5598 ± 1875 ng/mL
- Serum IgE ± SD ([2]; 2.0 μg IP 3x daily days 3 and 4, day 8): 3057 ± 331 ng/mL
- Serum IgE ± SD ([2]; 2.0 μg IP 3x daily days 3 and 4, day 9): 3644 ± 1179 ng/mL
- Serum IgE ± SD ([2]; 2.0 μg IP 3x daily days 3 and 4, day 11): 1279 ± 377 ng/mL
- Serum IgE ± SD ([2]; 2.0 μg IP 3x daily days 3 and 4, day -1 baseline before treatment): 800 ± 10 ng/mL
- Serum IgE ± SD ([2]; 2.0 μg IP 4x daily days 3 and 4, day 7): 5483 ± 717 ng/mL
- Serum IgE ± SD ([2]; 2.0 μg IP 4x daily days 3 and 4, day 8): 3236 ± 599 ng/mL
- Mean IgE ± SD ([2]; 2 μg IP 4x daily days 3 and 4, day 8 (controls 14083-15890)): 5401 ± 883 ng/mL
- Serum IgE ± SD ([2]; 2.0 μg IP 4x daily days 3 and 4, day 9): 3987 ± 401 ng/mL
- Serum IgE ± SD ([2]; 2.0 μg IP 4x daily days 3 and 4, day 11): 1925 ± 410 ng/mL
- Mean IgE ± SD ([2]; 2 μg IP 4x daily days 3 and 4, day -1 baseline before treatment): 1294 ± 232 ng/mL
- Serum IgE ± SD ([2]; 2.0 μg IP 4x daily days 3 and 4, day -1 baseline before treatment): 1019 ± 206 ng/mL
- reduction in IgE production ([2]; 2 μg IP, day 8): about 62%
- IgE inhibition regardless of day of administration ([2]; 5 μg IP): regardless on what day the prostaglandin was administered IgE production (synthesis) was inhibited
- duration of IgE suppression ([2]; 5 μg IP): IgE production was still suppressed even after 11 days
- optimal day of administration for inhibition of IgE ([2]; 5 μg IP): IgE production is inhibited optimally when administered on day 3 and 4
- Mean IgE ± SD ([2]; 5 μg IP 4x daily days 3 and 4, day 8 (controls 14083-15890)): 5076 ± 378 ng/mL
- Mean IgE ± SD ([2]; 5 μg IP 4x daily days 3 and 4, day -1 baseline before treatment): 1292 ± 185 ng/mL
- Serum IgE ± SD ([2]; 5 μg IP on days 1,2, day 8 (control 19549)): 9753 ± 4566 ng/mL
- Serum IgE ± SD ([2]; 5 μg IP on days 1,2, day 9 (control 17498)): 10678 ± 8402 ng/mL
- Serum IgE ± SD ([2]; 5 μg IP on days 1,2, day 11 (control 5317)): 2355 ± 709 ng/mL
- Serum IgE ± SD ([2]; 5 μg IP on days 1,2, day -1 baseline before treatment): 1344 ± 135 ng/mL
- Serum IgE ± SD ([2]; 5 μg IP on days 2,3, day 8 (control 19549)): 6233 ± 1948 ng/mL
- Serum IgE ± SD ([2]; 5 μg IP on days 2,3, day 9 (control 17498)): 5328 ± 1811 ng/mL
- Serum IgE ± SD ([2]; 5 μg IP on days 2,3, day 11 (control 5317)): 2139 ± 396 ng/mL
- Serum IgE ± SD ([2]; 5 μg IP on days 2,3, day -1 baseline before treatment): 1293 ± 88 ng/mL
- Serum IgE ± SD ([2]; 5 μg IP on days 3,4, day 8 (control 19549)): 4683 ± 1247 ng/mL
- Serum IgE ± SD ([2]; 5 μg IP on days 3,4, day 9 (control 17498)): 4505 ± 1155 ng/mL
- Serum IgE ± SD ([2]; 5 μg IP on days 3,4, day 11 (control 5317)): 1865 ± 361 ng/mL
- Serum IgE ± SD ([2]; 5 μg IP on days 3,4, day -1 baseline before treatment): 1517 ± 166 ng/mL
- Serum IgE ± SD ([2]; 5 μg IP on days 4,5, day 8 (control 19549)): 7969 ± 1821 ng/mL
- Serum IgE ± SD ([2]; 5 μg IP on days 4,5, day 9 (control 17498)): 7145 ± 1763 ng/mL
- Serum IgE ± SD ([2]; 5 μg IP on days 4,5, day 11 (control 5317)): 2316 ± 496 ng/mL
- Serum IgE ± SD ([2]; 5 μg IP on days 4,5, day -1 baseline before treatment): 1644 ± 560 ng/mL
- Serum IgE ± SD ([2]; 10.0 μg IP 3x daily days 3 and 4, day 7): 3223 ± 1717 ng/mL
- Serum IgE ± SD ([2]; 10.0 μg IP 3x daily days 3 and 4, day 8): 1705 ± 859 ng/mL
- Serum IgE ± SD ([2]; 10.0 μg IP 3x daily days 3 and 4, day 9): 1233 ± 601 ng/mL
- Serum IgE ± SD ([2]; 10.0 μg IP 3x daily days 3 and 4, day 11): 1116 ± 276 ng/mL
- Serum IgE ± SD ([2]; 10.0 μg IP 3x daily days 3 and 4, day -1 baseline before treatment): 849 ± 77 ng/mL
- Serum IgE ± SD ([2]; 10.0 μg IP 4x daily days 3 and 4, day 7): 2092 ± 605 ng/mL
- Serum IgE ± SD ([2]; 10.0 μg IP 4x daily days 3 and 4, day 8): 1884 ± 598 ng/mL
- Mean IgE ± SD ([2]; 10 μg IP 4x daily days 3 and 4, day 8 (controls 14083-15890)): 2661 ± 504 ng/mL
- Serum IgE ± SD ([2]; 10.0 μg IP 4x daily days 3 and 4, day 9): 1991 ± 834 ng/mL
- Serum IgE ± SD ([2]; 10.0 μg IP 4x daily days 3 and 4, day 11): 1429 ± 361 ng/mL
- Mean IgE ± SD ([2]; 10 μg IP 4x daily days 3 and 4, day -1 baseline before treatment): 1382 ± 135 ng/mL
- Serum IgE ± SD ([2]; 10.0 μg IP 4x daily days 3 and 4, day -1 baseline before treatment): 1040 ± 211 ng/mL
- Mean IgE ± SD ([2]; 20 μg IP 4x daily days 3 and 4, day 8 (controls 14083-15890)): 1608 ± 272 ng/mL
- Mean IgE ± SD ([2]; 20 μg IP 4x daily days 3 and 4, day -1 baseline before treatment): 1308 ± 204 ng/mL
- inhibition of de novo IgE synthesis in vivo ([2]; 20 μg days 3 and 4): de nouo IgE synthesis is inhibited
- Serum IgE ± SD ([2]; 40 μg IP 3x daily days 3 and 4, day 7): 998 ± 146 ng/mL
- Serum IgE ± SD ([2]; 40 μg IP 3x daily days 3 and 4, day 8): 1214 ± 181 ng/mL
- Serum IgE ± SD ([2]; 40 μg IP 3x daily days 3 and 4, day 9): 1119 ± 135 ng/mL
- Serum IgE ± SD ([2]; 40 μg IP 3x daily days 3 and 4, day 11): 1110 ± 249 ng/mL
- Serum IgE ± SD ([2]; 40 μg IP 3x daily days 3 and 4, day -1 baseline before treatment): 822 ± 39 ng/mL
- Serum IgE ± SD ([2]; 40.0 μg IP 4x daily days 3 and 4, day 7): 1037 ± 237 ng/mL
- Serum IgE ± SD ([2]; 40.0 μg IP 4x daily days 3 and 4, day 8): 1152 ± 388 ng/mL
- Mean IgE ± SD ([2]; 40 μg IP 4x daily days 3 and 4, day 8 (controls 14083-15890)): 1217 ± 344 ng/mL
- Serum IgE ± SD ([2]; 40.0 μg IP 4x daily days 3 and 4, day 9): 870 ± 83 ng/mL
- Serum IgE ± SD ([2]; 40.0 μg IP 4x daily days 3 and 4, day 11): 1028 ± 302 ng/mL
- Mean IgE ± SD ([2]; 40 μg IP 4x daily days 3 and 4, day -1 baseline before treatment): 1114 ± 324 ng/mL
- Serum IgE ± SD ([2]; 40.0 μg IP 4x daily days 3 and 4, day -1 baseline before treatment): 929 ± 97 ng/mL
- inhibition of serum IgE synthesis ([2]; 2-40 μg IP days 3 and 4): reduces IgE production in a dose dependent manner
- Mean IgE ± SD ([2]; Group D, unstimulated (PBS on day 0), 40 μg (text: 20 μg) IP days 3 and 4, day 8): 1026 ± 387 ng/mL
- Mean IgE ± SD ([2]; Group D, unstimulated (PBS on day 0), 40 μg (text: 20 μg) IP days 3 and 4, day -1 baseline before treatment): 1289 ± 10 ng/mL
- IgE inhibition, 3 vs 4 times a day ([2]; IP days 3 and 4): equally effective at inhibiting IgE production in a dose dependent manner whether administered 3 times a day or 4 times a day
- dosage at which maximum inhibition is obtained ([2]; IP days 3 and 4): 40.0 µg
- lowest dosage at which some inhibition is obtained ([2]; IP days 3 and 4): 1.0 µg
- IgE ± SD ([2]; Table 9, 20 μg IP days 3 and 4, day 8 (control 3539)): 1206 ± 119 ng/mL
- IgE ± SD ([2]; Table 9, 20 μg IP days 3 and 4, day -1 baseline before treatment): 1015 ± 70 ng/mL

SMILES: CCCCC(C)(O)C/C=C/[C@H]1[C@H](O)CC(=O)[C@@H]1CCC1CC1CCC(=O)OC (relative stereo) [(±) methyl 2-[2-[3R-3α-hydroxy-2β-(4-hydroxy-4-methyl-1E-octenyl)-5-oxo-1α-cyclopentyl]ethyl]cyclopropanepropanoate]
- ED50 IgE Inhibition [1]: 1.0 μg/mouse/TID
- de novo IgE synthesis ([2]; 20 μg days 3 and 4, Example 23): inhibit de novo IgE synthesis
- IgE ± SD [2, 4]: 3034 ± 878 ng/mL

SMILES: CCCCC(C)(O)C/C=C/[C@H]1[C@H](O)CC(=O)[C@@H]1CCCC(C)(C)CCC(=O)OC (mixture of isomers) [(±) methyl 11α,16-dihydroxy-4,4,16-trimethyl-9-oxoprost-13E-en-1-oate]
- ED50 IgE Inhibition [1]: 1.5 μg/mouse/TID
- de novo IgE synthesis ([2]; 20 μg days 3 and 4, Example 25): inhibit de novo IgE synthesis
- IgE ± SD [2, 3]: < 800 ng/mL

SMILES: CCCCC(C)(O)C/C=C/[C@H]1[C@H](O)CC(=O)[C@@H]1CC1CC1CCCC(=O)OC (relative stereo) [(±) methyl 2-[2-[3R-3α-hydroxy-2β-(4-hydroxy-4-methyl-1E-octenyl)-5-oxo-1α-cyclopentyl]methyl]cyclopropanebutanoate]
- ED50 IgE Inhibition [1]: 9.0 μg/mouse/TID
- de novo IgE synthesis ([2]; 20 μg days 3 and 4, Example 23): inhibit de novo IgE synthesis
- IgE ± SD [2, 4]: 2750 ± 318 ng/mL
